Results on 4 compounds are retold here after US20050113292A1 (priority 2003, published 2005).

One experiment deals with M-tropic (BAL) HIV-1. As to conditions: M-tropic (BAL).
A further experiment relates to T-tropic (R8) HIV-1. Particulars: T-tropic (R8).
The subject of experiment [1] is HIV-1 mediated cell-cell fusion (R8 virus). As to conditions: mediated cell-cell fusion (R8 virus).

On to `CC(C)C[C@H](NC(=O)[C@H](CO)NC(=O)[C@H](C)NC(=O)[C@H](Cc1c[nH]c2ccccc12)NC(=O)[C@H](CCCCN)NC(=O)[C@H](CC(=O)O)NC(=O)[C@H](CC(C)C)NC(=O)[C@H](CCC(=O)O)NC(=O)[C@H](CC(C)C)NC(=O)[C@@H]1CSC(C(=O)NCCCC[C@H](NC(=O)CCNC(=O)C2N[C@H](C(=O)N[C@@H](CC(C)C)C(=O)N[C@@H](CCC(=O)O)C(=O)N[C@@H](CC(C)C)C(=O)N[C@@H](CC(=O)O)C(=O)N[C@@H](CCCCN)C(=O)N[C@@H](Cc3c[nH]c4ccccc34)C(=O)N[C@@H](C)C(=O)N[C@@H](CO)C(=O)N[C@@H](CC(C)C)C(=O)N[C@@H](Cc3c[nH]c4ccccc34)C(=O)N[C@@H](CC(N)=O)C(=O)N[C@@H](Cc3c[nH]c4ccccc34)C(=O)N[C@@H](Cc3ccccc3)C(=O)O)CS2)C(=O)N[C@@H](CCCCNC(=O)CNC(=O)C2N[C@H](C(=O)N[C@@H](CC(C)C)C(=O)N[C@@H](CCC(=O)O)C(=O)N[C@@H](CC(C)C)C(=O)N[C@@H](CC(=O)O)C(=O)N[C@@H](CCCCN)C(=O)N[C@@H](Cc3c[nH]c4ccccc34)C(=O)N[C@@H](C)C(=O)N[C@@H](CO)C(=O)N[C@@H](CC(C)C)C(=O)N[C@@H](Cc3c[nH]c4ccccc34)C(=O)N[C@@H](CC(N)=O)C(=O)N[C@@H](Cc3c[nH]c4ccccc34)C(=O)N[C@@H](Cc3ccccc3)C(=O)O)CS2)C(=O)N[C@@H](CO)C(=O)N[C@@H](CO)C(=O)N[C@@H](C)C(N)=O)N1)C(=O)N[C@@H](Cc1c[nH]c2ccccc12)C(=O)N[C@@H](CC(N)=O)C(=O)N[C@@H](Cc1c[nH]c2ccccc12)C(=O)N[C@@H](Cc1ccccc1)C(=O)O` (stereo partly drawn) [Compound 3α-C13], for which the IC50 with M-tropic (BAL) HIV-1 is 0.43 µM; in the experiment on T-tropic (R8) HIV-1 it was 0.43 µM; in experiment [1] it was 0.26 µM.
Consider `CC(C)C[C@H](NC(=O)[C@H](CO)NC(=O)[C@H](C)NC(=O)[C@H](Cc1c[nH]c2ccccc12)NC(=O)[C@H](CCCCN)NC(=O)[C@H](CC(=O)O)NC(=O)[C@H](CC(C)C)NC(=O)[C@H](CCC(=O)O)NC(=O)[C@H](CC(C)C)NC(=O)[C@H](CC(C)C)NC(=O)[C@H](CCC(=O)O)NC(=O)[C@H](CCC(N)=O)NC(=O)[C@H](CCC(=O)O)NC(=O)[C@H](CC(N)=O)NC(=O)[C@H](CCCCN)NC(=O)[C@H](CCC(=O)O)NC(=O)[C@H](CCC(N)=O)NC(=O)[C@H](CCC(N)=O)NC(=O)[C@H](CC(N)=O)NC(=O)[C@H](CCC(N)=O)NC(=O)[C@@H]1CSC(C(=O)NCCCC[C@H](NC(=O)CCNC(=O)C2N[C@H](C(=O)N[C@@H](CCC(N)=O)C(=O)N[C@@H](CC(N)=O)C(=O)N[C@@H](CCC(N)=O)C(=O)N[C@@H](CCC(N)=O)C(=O)N[C@@H](CCC(=O)O)C(=O)N[C@@H](CCCCN)C(=O)N[C@@H](CC(N)=O)C(=O)N[C@@H](CCC(=O)O)C(=O)N[C@@H](CCC(N)=O)C(=O)N[C@@H](CCC(=O)O)C(=O)N[C@@H](CC(C)C)C(=O)N[C@@H](CC(C)C)C(=O)N[C@@H](CCC(=O)O)C(=O)N[C@@H](CC(C)C)C(=O)N[C@@H](CC(=O)O)C(=O)N[C@@H](CCCCN)C(=O)N[C@@H](Cc3c[nH]c4ccccc34)C(=O)N[C@@H](C)C(=O)N[C@@H](CO)C(=O)N[C@@H](CC(C)C)C(=O)N[C@@H](Cc3c[nH]c4ccccc34)C(=O)N[C@@H](CC(N)=O)C(=O)N[C@@H](Cc3c[nH]c4ccccc34)C(=O)N[C@@H](Cc3ccccc3)C(=O)O)CS2)C(=O)N[C@@H](CO)C(=O)N[C@@H](CO)C(=O)N[C@@H](C)C(N)=O)N1)C(=O)N[C@@H](Cc1c[nH]c2ccccc12)C(=O)N[C@@H](CC(N)=O)C(=O)N[C@@H](Cc1c[nH]c2ccccc12)C(=O)N[C@@H](Cc1ccccc1)C(=O)O` (stereo partly drawn) [Compound 2α-C24], for which the figures for the IC50 (with M-tropic (BAL) HIV-1; in the experiment with T-tropic (R8) HIV-1; in experiment [1]) were 0.067 µM, 0.08 µM and 0.038 µM, respectively.
As for `CC(C)C[C@H](NC(=O)[C@H](CO)NC(=O)[C@H](C)NC(=O)[C@H](Cc1c[nH]c2ccccc12)NC(=O)[C@H](CCCCN)NC(=O)[C@H](CC(=O)O)NC(=O)[C@H](CC(C)C)NC(=O)[C@H](CCC(=O)O)NC(=O)[C@H](CC(C)C)NC(=O)[C@H](CC(C)C)NC(=O)[C@H](CCC(=O)O)NC(=O)[C@H](CCC(N)=O)NC(=O)[C@H](CCC(=O)O)NC(=O)[C@H](CC(N)=O)NC(=O)[C@H](CCCCN)NC(=O)[C@H](CCC(=O)O)NC(=O)[C@H](CCC(N)=O)NC(=O)[C@H](CCC(N)=O)NC(=O)[C@H](CC(N)=O)NC(=O)[C@H](CCC(N)=O)NC(=O)[C@@H]1CSC(C(=O)NCCCC[C@H](NC(=O)CCNC(=O)C2N[C@H](C(=O)N[C@@H](CCC(N)=O)C(=O)N[C@@H](CC(N)=O)C(=O)N[C@@H](CCC(N)=O)C(=O)N[C@@H](CCC(N)=O)C(=O)N[C@@H](CCC(=O)O)C(=O)N[C@@H](CCCCN)C(=O)N[C@@H](CC(N)=O)C(=O)N[C@@H](CCC(=O)O)C(=O)N[C@@H](CCC(N)=O)C(=O)N[C@@H](CCC(=O)O)C(=O)N[C@@H](CC(C)C)C(=O)N[C@@H](CC(C)C)C(=O)N[C@@H](CCC(=O)O)C(=O)N[C@@H](CC(C)C)C(=O)N[C@@H](CC(=O)O)C(=O)N[C@@H](CCCCN)C(=O)N[C@@H](Cc3c[nH]c4ccccc34)C(=O)N[C@@H](C)C(=O)N[C@@H](CO)C(=O)N[C@@H](CC(C)C)C(=O)N[C@@H](Cc3c[nH]c4ccccc34)C(=O)N[C@@H](CC(N)=O)C(=O)N[C@@H](Cc3c[nH]c4ccccc34)C(=O)N[C@@H](Cc3ccccc3)C(=O)O)CS2)C(=O)N[C@@H](CCCCNC(=O)CNC(=O)C2N[C@H](C(=O)N[C@@H](CCC(N)=O)C(=O)N[C@@H](CC(N)=O)C(=O)N[C@@H](CCC(N)=O)C(=O)N[C@@H](CCC(N)=O)C(=O)N[C@@H](CCC(=O)O)C(=O)N[C@@H](CCCCN)C(=O)N[C@@H](CC(N)=O)C(=O)N[C@@H](CCC(=O)O)C(=O)N[C@@H](CCC(N)=O)C(=O)N[C@@H](CCC(=O)O)C(=O)N[C@@H](CC(C)C)C(=O)N[C@@H](CC(C)C)C(=O)N[C@@H](CCC(=O)O)C(=O)N[C@@H](CC(C)C)C(=O)N[C@@H](CC(=O)O)C(=O)N[C@@H](CCCCN)C(=O)N[C@@H](Cc3c[nH]c4ccccc34)C(=O)N[C@@H](C)C(=O)N[C@@H](CO)C(=O)N[C@@H](CC(C)C)C(=O)N[C@@H](Cc3c[nH]c4ccccc34)C(=O)N[C@@H](CC(N)=O)C(=O)N[C@@H](Cc3c[nH]c4ccccc34)C(=O)N[C@@H](Cc3ccccc3)C(=O)O)CS2)C(=O)N[C@@H](CO)C(=O)N[C@@H](CO)C(=O)N[C@@H](C)C(N)=O)N1)C(=O)N[C@@H](Cc1c[nH]c2ccccc12)C(=O)N[C@@H](CC(N)=O)C(=O)N[C@@H](Cc1c[nH]c2ccccc12)C(=O)N[C@@H](Cc1ccccc1)C(=O)O` (stereo partly drawn) [Compound 3α-C24], the IC50 in the experiment on M-tropic (BAL) HIV-1 amounted to 0.036 µM; in the experiment on T-tropic (R8) HIV-1, 0.31 µM; in experiment [1] it was 0.29 µM.
The matching figures for `CC(C)C[C@H](NC(=O)[C@H](CO)NC(=O)[C@H](C)NC(=O)[C@H](Cc1c[nH]c2ccccc12)NC(=O)[C@H](CCCCN)NC(=O)[C@H](CC(=O)O)NC(=O)[C@H](CC(C)C)NC(=O)[C@H](CCC(=O)O)NC(=O)[C@H](CC(C)C)NC(=O)[C@@H]1CSC(C(=O)NCCCC[C@H](NC(=O)CCNC(=O)C2N[C@H](C(=O)N[C@@H](CC(C)C)C(=O)N[C@@H](CCC(=O)O)C(=O)N[C@@H](CC(C)C)C(=O)N[C@@H](CC(=O)O)C(=O)N[C@@H](CCCCN)C(=O)N[C@@H](Cc3c[nH]c4ccccc34)C(=O)N[C@@H](C)C(=O)N[C@@H](CO)C(=O)N[C@@H](CC(C)C)C(=O)N[C@@H](Cc3c[nH]c4ccccc34)C(=O)N[C@@H](CC(N)=O)C(=O)N[C@@H](Cc3c[nH]c4ccccc34)C(=O)N[C@@H](Cc3ccccc3)C(=O)O)CS2)C(=O)N[C@@H](CO)C(=O)N[C@@H](CO)C(=O)N[C@@H](C)C(N)=O)N1)C(=O)N[C@@H](Cc1c[nH]c2ccccc12)C(=O)N[C@@H](CC(N)=O)C(=O)N[C@@H](Cc1c[nH]c2ccccc12)C(=O)N[C@@H](Cc1ccccc1)C(=O)O` (stereo partly drawn) [Compound 2α-C13]: 0.43 µM, 0.31 µM and 0.29 µM.
